{"source": "patent US4657924A", "about": "“Nafazatrom as a lipoxygenase inhibitor” (priority 1983, dated 1987)", "key": {"[1]": {"assay": "Antiasthmatic, inflammation-inhibiting and gastro-protective action", "conditions": "in words"}, "15-lipoxygenase": {"test_system": "15-lipoxygenase", "assay": "15-lipoxygenase inhibition", "assay_type": "biochemical", "conditions": "concentrations of >10 μg/ml"}, "5-lipoxygenase": {"test_system": "5-lipoxygenase", "assay": "5-lipoxygenase inhibition", "assay_type": "biochemical", "conditions": "selectively, versus 15- and 12-lipoxygenase"}, "[2]": {"test_system": "ischaemia-induced ECG changes", "assay": "Animal experiments: ECG changes in ischaemia", "assay_type": "in vivo"}, "[3]": {"test_system": "coronary arteries of dogs", "conditions": "cited from earlier work"}, "cyclooxygenase": {"test_system": "cyclooxygenase", "assay": "Cyclooxygenase inhibition", "assay_type": "biochemical", "conditions": "on administration of nafazatrom"}, "[4]": {"test_system": "prostacyclin (PGI2) from the vascular endothelium", "conditions": "Vermylen et al., Chamone et al., McIntyre and Salzman; cited from earlier work"}, "[5]": {"test_system": "synthesis of various prostaglandins in RSVM and BAM", "assay": "Prostaglandin synthesis in microsomes of sheep seminal vesicles (RSVM) and cattle aortas (BAM)", "assay_type": "biochemical", "description": "The specific PGI2 -stimulating action of nafazatrom was shown in vitro in a mixture of microsomes from the seminal vesicles of sheep (RSVM) and the aortas of cattle (BAM) (compare F. Cottee et al., Protaglandins, 14, 413, 1977). ^3 H-arachidonic acid was incubated with a mixture of RSVM and BAM in the presence of 3.10^-5 g/ml of nafazatrom at 25° C. for 10 minutes. The reaction was stopped by acidification to pH 3.5. The fatty acid metabolites were extracted with ethyl acetate. The ethyl acetate was evaporated off under N2, the residue was taken up in CH3 OH/CHCl3 (1:1) and the mixture was discharged on thin layer chromatography plastic sheets. Separation was effected with a mobile phase mixture of ethyl acetate/glacial acetic acid/isooctane/H2 O (110:20:50:10; organic phase) (P. Needleman et al., The Journal of Clinical Investigation 1978, 61, 839-849). The distribution of the radioactivity was measured by means of a radio scanner."}, "rabbit hearts": {"test_system": "rabbit hearts", "assay": "Rabbit hearts perfused by the method of Langendorff, perfusion pressure", "description": "The heart was removed from the rabbits (up to about 2 kg) under Nembutal anaesthesia and cannulas were attached at the aorta and at the a.pulmonalis. To measure the isovolumetric contractions, a silicon rubber balloon filled with liquid was inserted into the left ventricle via the left auricle. The balloon was connected to a liquid sensor (Statham P 23 Db) via a liquid bridge. The perfusion pressure was recorded with a pressure sensor, which was connected to the perfusion system via T-piece before the aorta cannula of the heart. The contraction force and perfusion pressure were recorded with a Gould 2600 S high-speed recorder. The hearts were stimulated electrically at a frequency of 180/minute and a stimulation duration of 5 mseconds.\nPerfusion of the hearts was effected with Krebs-Henseleit solution (KH solution), which was gassed with carbogen (95% of O2, 5% of CO2) or with a gas mixture of 2% of O2, 5.6% of CO2 and the remainder N2. The perfusion volume was 20 ml/minute and was adjusted by a roller pump (Desaga, 132100). The nafazatrom and the platelet suspensions (obtained from the same rabbit from which the heart is removed) were added with the aid of infusion pumps (roller pumps, Braun-Melsungen), the solution or suspension being infused at a flow rate of 0.2 or 0.1 ml/minute from an infusion syringe via a Taigon tube and a fine cannula into the inlet tube shortly before the heart. The final concentration of the platelets was 1×10^7 /ml of KH solution. The solution flowing out of the heart (cannula in the a.pulmonalis) was collected periodically, under ice-cooling. To measure the concentrations of thromboxan as TXB2 and of prostacyclin as 6-keto-PGF1^α, determination of which was effected with the aid of radioimmunoassay, aliquot parts by volume were freeze-dried and taken up in one tenth of the original volume of water."}, "guinea pig lung": {"test_system": "guinea pig lung", "assay": "Inhibition of methacholine-induced bronchoconstriction in perfused guinea pig lung", "conditions": "10^-4 g/ml; 0.05 μg/ml of methacholine", "description": "Nafazatrom can moreover be used for the therapy of pulmonary hypertension, pulmonary embolisms and pulmonary oedemas. […] In this organ, nafazatrom inhibits (by the method of F. P. Luduena et al., Arch. Int. Pharmacodyn. 111, 392, 1957) methacholine-induced bronchoconstriction (see Example 5).\nThe guinea pig lung was perfused with a physiological buffer solution (Tyrode's solution) containing 0.05 μg/ml of methacholine."}, "12-lipoxygenase": {"test_system": "12-lipoxygenase", "assay": "12-lipoxygenase inhibition", "assay_type": "biochemical", "conditions": "these concentrations (>10 μg/ml)"}, "[6]": {"test_system": "15-hydroxyprostaglandin dehydrogenase", "conditions": "Wong and McGiff, 1982; cited from earlier work"}, "[7]": {"conditions": "3.10^-5 g/ml, 25° C., 10 minutes"}}, "data": [{"smiles": "CC1=NN(CCOc2ccc3ccccc3c2)C(=O)C1", "note": "[nafazatrom, 3-methyl-1-[2-(2-naphthyloxy)-ethyl]-2-pyrazolin-5-one]", "values": [{"measurement": "antiasthmatic, inflammation-inhibiting and gastro-protective action", "setting": "[1]", "value": "marked antiasthmatic, inflammation-inhibiting and gastro-protective action"}, {"measurement": "inhibition of 15-lipoxygenase", "setting": "15-lipoxygenase", "value": "not inhibited or is even stimulated"}, {"measurement": "inhibition of 5-lipoxygenase", "setting": "5-lipoxygenase", "value": "selectively inhibits"}, {"measurement": "R-wave in the ECG of the peripheral extremities", "setting": "[2]; in vivo", "value": "increases less sharply and re-forms more rapidly"}, {"measurement": "ST intervals compared with the controls", "setting": "[2]; in vivo", "value": "changed less than in the controls"}, {"measurement": "ischaemia-induced rise in the ST zone", "setting": "[2]; indication of infarction", "value": "reduces the ischaemia-induced rise in the ST zone"}, {"measurement": "antithrombotic effectiveness", "setting": "[3]", "value": "also effective in the coronary arteries of dogs"}, {"measurement": "inhibition of cyclooxygenase", "setting": "cyclooxygenase", "value": "No such inhibition of cyclooxygenase"}, {"measurement": "stimulation of endogenous prostacyclin (PGI2)", "setting": "[4]", "value": "stimulator of endogenous prostacyclin (PGI2)"}, {"measurement": "Increase in concentration (in %) in comparison with the control, 6-Keto-PGF1 α", "setting": "[5]; [7]", "value": "300-400%"}, {"measurement": "Increase in concentration (in %) in comparison with the control, PGD2", "setting": "[5]; [7]", "value": 0, "unit": "%"}, {"measurement": "Increase in concentration (in %) in comparison with the control, PGE2", "setting": "[5]; [7]", "value": 0, "unit": "%"}, {"measurement": "Increase in concentration (in %) in comparison with the control, PGF2 α", "setting": "[5]; [7]", "value": 0, "unit": "%"}, {"measurement": "synthesis of prostacyclin (PGI2)", "setting": "[5]; in words", "value": "specifically stimulates"}, {"measurement": "synthesis of the prostaglandins having a vasoconstricting action and of TXA2", "setting": "[5]; in words, see Example 2", "value": "not influenced"}, {"measurement": "Perfusion pressure in % of the blank value, 3rd phase", "setting": "rabbit hearts; as 2nd phase, 1.10^-5 g/ml of nafazatrom, 5 minutes", "value": 80, "unit": "%"}, {"measurement": "Perfusion pressure in % of the blank value, 5th phase", "setting": "rabbit hearts; as 3rd phase (reoxygenation), 1.10^-5 g/ml", "value": 75, "unit": "%"}, {"measurement": "Perfusion pressure in % of the blank value, 4th phase", "setting": "rabbit hearts; as 3rd phase, 2% of O2 (hypoxia), 10 minutes, 1.10^-5 g/ml", "value": 63, "unit": "%"}, {"measurement": "rise in perfusion pressure caused by addition of platelets", "setting": "rabbit hearts; first and second carbogen phase", "value": "significantly inhibits"}, {"measurement": "Perfusion pressure in % of the blank value, 2nd phase", "setting": "rabbit hearts; normoxia, carbogen, 1.10^7 platelets/ml, 5 minutes, before addition of nafazatrom", "value": 139, "unit": "%"}, {"measurement": "Perfusion pressure in % of the blank value, 1st phase", "setting": "rabbit hearts; preliminary phase, carbogen, before addition of nafazatrom", "value": 100, "unit": "%"}, {"measurement": "inhibition of the rise in perfusion pressure, and hence bronchoconstriction", "setting": "guinea pig lung", "value": 50, "unit": "%"}, {"measurement": "inhibition of 12-lipoxygenase", "setting": "12-lipoxygenase", "value": "not inhibited"}, {"measurement": "blocking of 15-hydroxyprostaglandin dehydrogenase", "setting": "[6]", "value": "blocks 15-hydroxyprostaglandin dehydrogenase"}]}]}
